# In patent US11008317B2, “Triazolopyridine inhibitors of myeloperoxidase and/or EPX” (priority 2016, dated 2021):
# Legend:
# [1] = target: T1, myeloperoxidase (Homo sapiens, UniProt P05164); experiment: MPO Peroxidation Assay (Amplex Red Assay); type: biochemical; details: potency range class, read-out: Amplex Red Assay IC50 value
# T1 sequence (P05164 49-745): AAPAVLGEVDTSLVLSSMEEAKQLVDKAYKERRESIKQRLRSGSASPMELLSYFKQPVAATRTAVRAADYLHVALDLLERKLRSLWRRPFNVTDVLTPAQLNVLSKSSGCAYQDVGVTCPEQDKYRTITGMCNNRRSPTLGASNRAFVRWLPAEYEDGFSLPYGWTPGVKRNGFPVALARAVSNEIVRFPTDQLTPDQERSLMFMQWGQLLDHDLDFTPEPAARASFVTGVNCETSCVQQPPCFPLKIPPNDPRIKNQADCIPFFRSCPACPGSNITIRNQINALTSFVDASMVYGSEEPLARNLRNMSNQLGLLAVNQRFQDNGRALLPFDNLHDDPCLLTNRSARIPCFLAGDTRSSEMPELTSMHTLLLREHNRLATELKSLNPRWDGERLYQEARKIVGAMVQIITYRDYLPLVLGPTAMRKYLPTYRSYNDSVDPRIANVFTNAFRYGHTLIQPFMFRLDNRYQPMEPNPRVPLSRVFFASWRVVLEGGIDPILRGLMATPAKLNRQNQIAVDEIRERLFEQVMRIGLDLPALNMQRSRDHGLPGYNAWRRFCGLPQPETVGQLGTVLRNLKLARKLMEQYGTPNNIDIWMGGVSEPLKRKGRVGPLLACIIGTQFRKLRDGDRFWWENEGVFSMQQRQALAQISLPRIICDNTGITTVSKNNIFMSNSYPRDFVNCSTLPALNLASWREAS
# [2] = target: T1, myeloperoxidase; experiment: MPO Chlorination Assay (APF Assay); type: biochemical; details: potency range class, read-out: APF Assay IC50 value
SMILES,IC50 [1],IC50 [2]
"Nc1cc(C(CCN[C@H]2CCc3c(Cl)cccc32)c2ccccc2)c2nn[nH]c2n1 (stereo partly drawn) [Example 73, 7-(3-{[(1S)-4-chloro-2,3-dihydro-1H-inden-1-yl]amino}-1-phenylpropyl)-3H-[1,2,3]triazolo [4,5-b]pyridin-5-amine]",1000 to 10000 nM,1 to 100 nM
"Nc1cc(C(CCN[C@H]2C[C@H](c3ccccc3)Cc3ccccc32)c2ccccc2)c2nn[nH]c2n1 (stereo partly drawn) [Example 82, 7-(1-phenyl-3-{[(1S,3R)-3-phenyl-1,2,3,4-tetrahydronaphthalen-1-yl]amino}propyl)-3H-[1,2,3]triazolo [4,5-b]pyridin-5-amine]",1000 to 10000 nM,1 to 100 nM
"Nc1cc(C(CCN[C@@H]2C[C@H](c3ccccc3)Cc3ccccc32)c2ccccc2)c2nn[nH]c2n1 (stereo partly drawn) [Example 83, 7-(1-phenyl-3-{[(1R,3R)-3-phenyl-1,2,3,4-tetrahydronaphthalen-1-yl]amino}propyl)-3H-[1,2,3]triazolo [4,5-b]pyridin-5-amine]",1000 to 10000 nM,1 to 100 nM
"Nc1cc(C(CCN[C@@H]2C[C@@H](c3ccccc3)Cc3ccccc32)c2ccccc2)c2nn[nH]c2n1 (stereo partly drawn) [Example 84, 7-(1-phenyl-3-{[(1R,3S)-3-phenyl-1,2,3,4-tetrahydronaphthalen-1-yl]amino}propyl)-3H-[1,2,3]triazolo [4,5-b]pyridin-5-amine]",1000 to 10000 nM,101 to 999 nM
"Nc1cc(C(CCNCc2ccccc2OC(F)(F)F)c2ccccc2)c2nn[nH]c2n1 (stereo not shown) [Example 89, 7-[1-phenyl-3-({[2-(trifluoromethoxy)phenyl]methyl}amino)propyl]-3H-[1,2,3] triazolo[4,5-b] pyridin-5-amine]",1000 to 10000 nM,101 to 999 nM
"Nc1cc(C(CCNC2CCN(c3ccccc3)CC2)c2ccccc2)c2nn[nH]c2n1 (stereo not shown) [Example 92, N-(3-{5-amino-3H-[1,2,3]triazolo [4,5-b]pyridin-7-yl}-3-phenylpropyl)-1-phenylpiperidin-4-amine]",1000 to 10000 nM,1 to 100 nM
"CC1C[C@H](NCCC(c2ccccc2)c2cc(N)nc3[nH]nnc23)c2ccccc21 (stereo partly drawn) [Example 95, 7-(3-{[(1S)-3-methyl-2,3-dihydro-1H-inden-1-yl]amino}-1-phenylpropyl)-3H-[1,2,3]triazolo[4,5-b]pyridin-5-amine]",101 to 999 nM,1 to 100 nM
"CC(C)(C)C1CCC(NCCC(c2ccccc2)c2cc(N)nc3[nH]nnc23)CC1 (stereo not shown) [Example 96, 7-{3-[(4-tert-butylcyclohexyl)amino]-1-phenylpropyl}-3H-[1,2,3]triazolo[4,5-b] pyridin-5-amine]",1000 to 10000 nM,101 to 999 nM
"CC1C[C@@H](NCCC(c2ccccc2)c2cc(N)nc3[nH]nnc23)c2ccccc21 (stereo partly drawn) [Example 98, 7-(3-{[(1R)-3-methyl-2,3-dihydro-1H-inden-1-yl]amino}-1-phenylpropyl)-3H-[1,2,3]triazolo [4,5-b] pyridin-5-amine]",101 to 999 nM,1 to 100 nM
"CC1C[C@H](NCCC(c2ccccc2)c2cc(N)nc3[nH]nnc23)c2ccccc21 (stereo partly drawn) [Example 99, 7-(3-{[(1S)-3-methyl-2,3-dihydro-1H-inden-1-yl]amino}-1-phenylpropyl)-3H-[1,2,3]triazolo[4,5-b] pyridin-5-amine]",101 to 999 nM,1 to 100 nM
"CC(C)(CNCCC(c1ccccc1)c1cc(N)nc2[nH]nnc12)c1ccccc1 (stereo not shown) [Example 104, 7-{3-[(2-methyl-2-phenylpropyl)amino]-1-phenylpropyl}-3H-[1,2,3]triazolo[4,5-b] pyridin-5-amine]",101 to 999 nM,101 to 999 nM

# The next lines start with the values.
IC50 [1],IC50 [2],SMILES
101 to 999 nM,101 to 999 nM,"Nc1cc(C(CCN[C@@H]2CCc3cc(F)ccc32)c2ccccc2)c2nn[nH]c2n1 (stereo partly drawn) [Example 61, 7-(3-{[(1R)-5-fluoro-2,3-dihydro-1H-inden-1-yl]amino}-1-phenylpropyl)-3H-[1,2,3]triazolo[4,5-b]pyridin-5-amine]"
101 to 999 nM,101 to 999 nM,"Nc1cc(C(CCNCc2ccnc(C(F)(F)F)c2)c2ccccc2)c2nn[nH]c2n1 (stereo not shown) [Example 62, 7-[1-phenyl-3-({[2-(trifluoromethyl)pyridin-4-yl]methyl}amino)propyl]-3H-[1,2,3]triazolo[4,5-b]pyridin-5-amine]"
101 to 999 nM,1 to 100 nM,"Nc1cc(C(CCNCc2ccccc2Cc2ccccc2)c2ccccc2)c2nn[nH]c2n1 (stereo not shown) [Example 63, 7-(3-{[(2-benzylphenyl)methyl]amino}-1-phenylpropyl)-3H-[1,2,3]triazolo[4,5-b]pyridin-5-amine]"
101 to 999 nM,101 to 999 nM,"Nc1cc(C(CCN[C@@H]2CCc3c(Cl)cccc32)c2ccccc2)c2nn[nH]c2n1 (stereo partly drawn) [Example 65, 7-(3-{[(1R)-4-chloro-2,3-dihydro-1H-inden-1-yl]amino}-1-phenylpropyl)-3H-[1,2,3]triazolo[4,5-b]pyridin-5-amine]"
101 to 999 nM,101 to 999 nM,"NC(=O)c1cccc(CNCCC(c2ccccc2)c2cc(N)nc3[nH]nnc23)c1 (stereo not shown) [Example 70, 3-{[(3-{5-amino-3H-[1,2,3]triazolo[4,5-b]pyridin-7-yl}-3-phenylpropyl)amino]methyl}hbenzamide]"
101 to 999 nM,101 to 999 nM,"CN(C)C(=O)c1cccc(CNCCC(c2ccccc2)c2cc(N)nc3[nH]nnc23)c1 (stereo not shown) [Example 72, 3-{[(3-{5-amino-3H-[1,2,3]triazolo[4,5-b]pyridin-7-yl}-3-phenylpropyl)amino]methyl}-N,N-dimethylbenzamide]"
101 to 999 nM,1 to 100 nM,"Nc1cc(C(CCNCc2ccccc2Oc2ccccc2)c2ccccc2)c2nn[nH]c2n1 (stereo not shown) [Example 74, 7-(3-{[(2-phenoxyphenyl)methyl]amino}-1-phenylpropyl)-3H-[1,2,3]triazolo[4,5-b]pyridin-5-amine]"
101 to 999 nM,1 to 100 nM,"Nc1cc(C(CCN[C@H]2C[C@@H](c3ccccc3)C2)c2ccccc2)c2nn[nH]c2n1 (stereo partly shown) [Example 76, 7-(1-phenyl-3-{[(1s,3s)-3-phenylcyclobutyl]amino}propyl)-3H-[1,2,3]triazolo[4,5-b]pyridin-5-amine]"
101 to 999 nM,1 to 100 nM,"Nc1cc(C(CCNCc2ccccc2Cc2ccc3c(c2)CCCC3)c2ccccc2)c2nn[nH]c2n1 (stereo not shown) [Example 78, 7-{1-phenyl-3-[({2-[(5,6,7,8-tetrahydronaphthalen-2-yl)methyl]phenyl}methyl)amino]propyl}-3H-[1,2,3] triazolo[4,5-b] pyridin-5-amine]"
101 to 999 nM,1 to 100 nM,"CC1(C)C[C@@H](NCCC(c2ccccc2)c2cc(N)nc3[nH]nnc23)c2ccccc21 (stereo partly drawn) [Example 85, 7-(3-{[(1R)-3,3-dimethyl-2,3-dihydro-1H-inden-1-yl]amino}-1-phenylpropyl)-3H-[1,2,3]triazolo [4,5-b]pyridin-5-amine]"
101 to 999 nM,1 to 100 nM,"CC1(C)C[C@H](NCCC(c2ccccc2)c2cc(N)nc3[nH]nnc23)c2ccccc21 (stereo partly drawn) [Example 87, 7-(3-{[(1S)-3,3-dimethyl-2,3-dihydro-1H-inden-1-yl]amino}-1-phenylpropyl)-3H-[1,2,3]triazolo [4,5-b]pyridin-5-amine]"
101 to 999 nM,101 to 999 nM,"CC1C[C@@H](NCCC(c2ccccc2)c2cc(N)nc3[nH]nnc23)c2ccccc21 (stereo partly drawn) [Example 88, 7-(3-{[(1R)-3-methyl-2,3-dihydro-1H-inden-1-yl]amino}-1-phenylpropyl)-3H-[1,2,3]triazolo[4,5-b]pyridin-5-amine]"
